Data from paper PMC9939733 (The Journal of Biological Chemistry, 2023).
Changes are numbered by the printed parent chain.

Legend:
Type in all cases: biochemical
R140Q IDH2 [1] = biological target: T1, R140Q IDH2 (Homo sapiens, UniProt P48735, R140Q); assay: Absorbance assay (NADPH consumption), substrate turnover in the absence of 2OG
T1 construct: made in house; host or cells: Sf21 insect cells (cell pellets prepared at Evotec)
T1 sequence (P48735 40-452 R140Q): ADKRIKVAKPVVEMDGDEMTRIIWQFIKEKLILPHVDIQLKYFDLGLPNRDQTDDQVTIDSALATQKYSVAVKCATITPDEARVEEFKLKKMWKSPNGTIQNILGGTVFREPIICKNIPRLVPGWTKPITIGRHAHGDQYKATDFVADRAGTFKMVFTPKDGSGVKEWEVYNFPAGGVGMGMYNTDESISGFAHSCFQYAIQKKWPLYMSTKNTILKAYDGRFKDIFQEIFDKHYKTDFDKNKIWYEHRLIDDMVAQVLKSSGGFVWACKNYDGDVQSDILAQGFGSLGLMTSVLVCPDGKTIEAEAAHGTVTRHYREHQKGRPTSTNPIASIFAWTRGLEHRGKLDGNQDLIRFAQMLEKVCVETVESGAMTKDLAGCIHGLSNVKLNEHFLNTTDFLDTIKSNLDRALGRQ
Method: (§1) Compounds were dispensed using a CyBio SDW-CW CyBi-Well Simultaneous Pipettor and assay started using a ThermoFisher Multidrop Combi reagent dispenser.
(§2) Reactions were performed as technical quadruplicates.

R172K IDH2 [2] = biological target: T2, R172K IDH2 (Homo sapiens, UniProt P48735, R172K); assay: as above
T2 construct: made in house; host or cells: Sf21 insect cells (cell pellets prepared at Evotec)
T2 sequence (P48735 40-452 R172K): T1 sequence (P48735 40-452 R140Q) with Q101R, R133K
Method: as §1, §2

R140Q IDH2 [3] = biological target: T1, R140Q IDH2; assay: Absorbance assay, variant activity in the presence of equimolar 2OG (inhibition screen)
Method: as §1, §2

R172K IDH2 [4] = biological target: T2, R172K IDH2; assay: as above
Method: as §1, §2

R132H IDH1 [5] = biological target: T3, R132H IDH1 (Homo sapiens, UniProt O75874, R132H); assay: Absorbance assay (NADPH consumption), substrate turnover in the absence of 2OG; set-up: made in house; host or cells: Escherichia coli BL21(DE3) pLyS
Method: as §1, §2

WT IDH1 [6] = biological target: T4, WT IDH1 (Homo sapiens, UniProt O75874); assay: Absorbance assay, WT activity in the presence of equimolar DL-isocitrate (inhibition)
T4 construct: made in house; host or cells: Escherichia coli BL21(DE3) pLyS
Method: as §1, §2

WT IDH2 [7] = biological target: T5, WT IDH2 (Homo sapiens, UniProt P48735); assay: as above
T5 construct: made in house; host or cells: Sf21 insect cells (cell pellets prepared at Evotec)
T5 sequence (P48735 40-452): T1 sequence (P48735 40-452 R140Q) with Q101R
Method: as §1, §2

R132H IDH1 [8] = biological target: T3, R132H IDH1; assay: Absorbance assay, variant activity in the presence of equimolar 2OG (inhibition screen); set-up: made in house; host or cells: Escherichia coli BL21(DE3) pLyS
Method: as §1, §2

WT IDH1 [9] = biological target: T4, WT IDH1; assay: Absorbance assay, substrate activity in the absence of DL-isocitrate; conditions: no DL-isocitrate; […] test compound, 75 μM NADP+, 2.0 nM WT IDH1; compared to DL-isocitrate
Method: as §1, §2

WT IDH2 [10] = biological target: T5, WT IDH2; assay: as above; conditions: no DL-isocitrate; […] test compound, 75 μM NADP+, 2.0 nM WT IDH2; compared to DL-isocitrate
Method: as §1, §2

[11] = no 2OG, 6.0 mM test compound, 0.03 μM R140Q IDH2, 50 μM NADPH, 2OG = 100
[12] = no 2OG, 1.0 mM test compound, 0.03 μM R172K IDH2, 50 μM NADPH, 2OG = 100
[13] = 6.0 mM 2OG and 6.0 mM test compound, 0.03 μM R140Q IDH2, 50 μM NADPH
[14] = 1.0 mM 2OG and 1.0 mM test compound, 0.03 μM R172K IDH2, 50 μM NADPH
[15] = no 2OG, […] test compound, 0.03 μM R132H IDH1, 50 μM NADPH, 2OG = 100
[16] = […] isocitrate and […] test compound, 75 μM NADP+, 2.0 nM WT IDH1
[17] = […] isocitrate and […] test compound, 75 μM NADP+, 2.0 nM WT IDH2
[18] = […] 2OG and […] test compound, 0.03 μM R132H IDH1, 50 μM NADPH

T4 sequence (O75874 whole entry): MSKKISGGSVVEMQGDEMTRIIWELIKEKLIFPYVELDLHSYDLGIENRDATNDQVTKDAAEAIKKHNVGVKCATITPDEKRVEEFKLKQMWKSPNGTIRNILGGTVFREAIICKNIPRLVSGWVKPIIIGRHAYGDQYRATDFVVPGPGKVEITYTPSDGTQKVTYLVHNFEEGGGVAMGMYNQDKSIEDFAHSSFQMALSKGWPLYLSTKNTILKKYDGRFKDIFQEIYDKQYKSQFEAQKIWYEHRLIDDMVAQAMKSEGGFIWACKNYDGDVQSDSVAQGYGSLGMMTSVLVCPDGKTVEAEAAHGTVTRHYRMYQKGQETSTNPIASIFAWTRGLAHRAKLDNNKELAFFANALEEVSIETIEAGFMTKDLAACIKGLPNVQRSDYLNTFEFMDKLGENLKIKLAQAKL
T3 sequence (O75874 whole entry R132H): as the sequence (O75874 whole entry) above, with R132H counted along it

| SMILES | activity [%] (%-substrate conversion after 20 min incubation) (R140Q IDH2 [1]; [11]) | activity [%] (%-substrate conversion after 20 min incubation) (R172K IDH2 [2]; [12]) | activity [%] (%-substrate conversion after 20 min incubation) (R140Q IDH2 [3]; [13]) | activity [%] (%-substrate conversion after 20 min incubation) (R172K IDH2 [4]; [14]) | activity [%] (%-substrate conversion after 20 min incubation) (R132H IDH1 [5]; [15]) | activity [%] (%-substrate conversion after 20 min incubation) (WT IDH1 [6]; [16]) | activity [%] (%-substrate conversion after 20 min incubation) (WT IDH2 [7]; [17]) | activity [%] (%-substrate conversion after 20 min incubation) (R132H IDH1 [8]; [18]) | activity [%] (%-substrate conversion after 20 min incubation) (WT IDH1 [9]) | activity [%] (%-substrate conversion after 20 min incubation) (WT IDH2 [10]) | activity [%] (%-substrate conversion after 20 min incubation) (R140Q IDH2 [1]) | activity [%] (%-substrate conversion after 20 min incubation) (R172K IDH2 [2]) | activity [%] (%-substrate conversion after 20 min incubation) (R140Q IDH2 [3]) | activity [%] (%-substrate conversion after 20 min incubation) (R172K IDH2 [4]) | activity [%] (%-substrate conversion after 20 min incubation) (R132H IDH1 [5]) | activity [%] (%-substrate conversion after 20 min incubation) (R132H IDH1 [8]) | activity [%] (%-substrate conversion after 20 min incubation) (R140Q IDH2 [1]; no 2OG, 6.0 mM test compound, 0.03 μM R140Q IDH2, 50 μM NADPH, 2OG = 100, listed as DL-4-hydroxy-2OG) | activity [%] (%-substrate conversion after 20 min incubation) (WT IDH1 [6]) | activity [%] (%-substrate conversion after 20 min incubation) (WT IDH2 [7]) |
| --- | --- | --- | --- | --- | --- | --- | --- | --- | --- | --- | --- | --- | --- | --- | --- | --- | --- | --- | --- |
| O=C(O)C(=O)CCc1ccccc1 [2-oxo-4-phenylbutanoic acid] | < 10 | < 10 | 98 ± 8 | 96 ± 1 | < 10 | 94 ± 2 | 96 ± 6 | 90 ± 3 |  |  |  |  |  |  |  |  |  |  |  |
| O=C(O)CC(C(=O)O)C(O)C(=O)O (racemic) [DL-isocitric acid] |  |  |  |  |  |  |  |  |  |  | < 10 | < 10 | 64 ± 3 | 71 ± 5 | < 10 | 78 ± 5 |  |  |  |
| O=C(O)C(=O)CC(O)C(=O)O (racemic) [DL-4-hydroxy-2-oxoglutaric acid] | 27 ± 3 | < 10 | 124 ± 8 | 98 ± 3 | < 10 | 89 ± 1 | 87 ± 1 | 82 ± 5 |  |  |  |  |  |  |  |  | ~20 |  |  |
| O=C(O)CC(O)(CC(=O)O)C(=O)O [DL-citric acid] |  |  |  |  |  |  |  |  |  |  | < 10 | < 10 | 122 ± 14 | 94 ± 4 | < 10 | 115 ± 25 |  | 103 ± 3 | 101 ± 3 |
| O=C(O)CCCC(=O)C(=O)O [2-oxoadipic acid] | < 10 | < 10 | 94 ± 8 | 96 ± 18 | < 10 | 108 ± 8 |  | 115 ± 8 |  |  |  |  |  |  |  |  |  |  |  |
| O=C(O)/C=C(/CC(=O)O)C(=O)O [cis-aconitic acid] |  |  |  |  |  |  |  |  |  |  | < 10 | < 10 | 119 ± 12 | 99 ± 7 | < 10 | 100 ± 2 |  | 101 ± 2 |  |
| NC(CCC(=O)O)C(=O)O (racemic) [DL-glutamic acid] | < 10 | < 10 | 94 ± 9 | 93 ± 5 | < 10 | 94 ± 7 |  | 83 ± 5 |  |  |  |  |  |  |  |  |  |  |  |
| O=C(O)C(=O)CC(CCCc1ccccc1)C(=O)O (racemic) [compound 18] |  |  | 101 ± 3 | 74 ± 12 |  | 101±3 | 100±1 | 82 ± 3 | < 10 | < 10 |  |  |  |  |  |  |  |  |  |

Further lines, with some results ahead:

| activity [%] (%-substrate conversion after 20 min incubation) (R140Q IDH2 [1]; [11]) | activity [%] (%-substrate conversion after 20 min incubation) (R172K IDH2 [2]; [12]) | activity [%] (%-substrate conversion after 20 min incubation) (R140Q IDH2 [3]; [13]) | activity [%] (%-substrate conversion after 20 min incubation) (R172K IDH2 [4]; [14]) | activity [%] (%-substrate conversion after 20 min incubation) (R132H IDH1 [5]; [15]) | activity [%] (%-substrate conversion after 20 min incubation) (WT IDH1 [6]; [16]) | activity [%] (%-substrate conversion after 20 min incubation) (WT IDH2 [7]; [17]) | activity [%] (%-substrate conversion after 20 min incubation) (R132H IDH1 [8]; [18]) | activity [%] (%-substrate conversion after 20 min incubation) (WT IDH1 [9]) | activity [%] (%-substrate conversion after 20 min incubation) (WT IDH2 [10]) | SMILES | activity [%] (%-substrate conversion after 20 min incubation) (R140Q IDH2 [1]) | activity [%] (%-substrate conversion after 20 min incubation) (R172K IDH2 [2]) | activity [%] (%-substrate conversion after 20 min incubation) (R140Q IDH2 [3]) | activity [%] (%-substrate conversion after 20 min incubation) (R172K IDH2 [4]) | activity [%] (%-substrate conversion after 20 min incubation) (R132H IDH1 [5]) | activity [%] (%-substrate conversion after 20 min incubation) (R132H IDH1 [8]) | activity [%] (%-substrate conversion after 20 min incubation) (R140Q IDH2 [1]; no 2OG, 6.0 mM test compound, 0.03 μM R140Q IDH2, 50 μM NADPH, 2OG = 100, listed as DL-4-hydroxy-2OG) | activity [%] (%-substrate conversion after 20 min incubation) (WT IDH1 [6]) | activity [%] (%-substrate conversion after 20 min incubation) (WT IDH2 [7]) |
| --- | --- | --- | --- | --- | --- | --- | --- | --- | --- | --- | --- | --- | --- | --- | --- | --- | --- | --- | --- |
| < 10 | < 10 | 112 ± 7 | 101 ± 2 | < 10 | 106 ± 2 |  | 104 ± 4 |  |  | O=C[C@H](O)[C@@H](O)[C@H](O)[C@H](O)C(=O)O [D-glucuronic acid] |  |  |  |  |  |  |  |  |  |
| < 10 | < 10 | 99 ± 5 | 96 ± 1 | < 10 | 102 ± 2 | 98 ± 3 | 97 ± 1 |  |  | CSCCC(=O)C(=O)O [4-methylthio-2-oxobutyric acid] |  |  |  |  |  |  |  |  |  |
| < 10 | < 10 | 109 ± 3 | 100 ± 4 | < 10 | 103 ± 3 |  | 95 ± 2 |  |  | O=C(O)CC(=O)CC(=O)O [3-oxoglutaric acid] |  |  |  |  |  |  |  |  |  |
|  | < 10 |  | 87 ± 10 | < 10 | 88 ± 2 | 89 ± 1 | 81 ± 6 |  |  | O=C(O)C(=O)Cc1c[nH]c2ccccc12 [indole-3-pyruvic acid] |  |  |  |  |  |  |  |  |  |
|  |  | 73 ± 4 | 51 ± 1 |  | 97±3 | 97±4 | 31 ± 2 | < 10 | < 10 | O=C(O)C(=O)CC(Cc1ccc2ccccc2c1)C(=O)O (racemic) [compound 20] |  |  |  |  |  |  |  |  |  |
